{"source": "patent US20160101109A1", "about": "“METHOD OF TREATING ARTHRITIS” (AbbVie Inc., priority 2007, published 2016)", "key": {"[1]": {"tested_on": "DBA/1J (H-2q) mice immunized with collagen", "experiment": "mouse model of arthritis (collagen immunization, zymosan boost)", "format": "in vivo", "details": "EXAMPLE A 50 mg/kg per day, dexamethasone 1 mg/kg per day, 3 weeks, p<0.5 versus vehicle control", "experimental": "Also, a standard mouse model of arthritis using DBA/1J (H-2q) mice immunized with collagen and boosted with zymosan 21 days later was used to induce disease. The mice were than treated with EXAMPLE A (50 mg/kg per day), vehicle (with no drug) and dexamethasone (1 mg/kg per day) at the first clinical sign of disease. The mice were then evaluated for mean arthritic score (MAS) and paw swelling for 3 weeks after treatment began."}, "[2]": {"tested_on": "KLH antigen-specific T cells", "experiment": "KLH immunization of mice, ex vivo restimulation of T cells", "format": "in vivo, mouse", "source_text": "Mice were immunized with keyhole limpet hemocyanin (KLH) and treated with EXAMPLE A or vehicle control."}, "[3]": {"tested_on": "activated T lymphocytes", "experiment": "mixed-lymphocyte reaction (MLR), mouse lymphocyte in vitro activation", "format": "cell-based"}, "[4]": {"tested_on": "mouse ankles", "experiment": "total bone volume by microcomputed tomography (μCT) of mouse ankles", "format": "in vivo", "details": "1.8-mm section of ankle, resolution 18 μm, FIG. 3", "experimental": "Still also, total bone volumes were measured by microcomputed tomography (μCT) for a 1.8-mm tall section of mouse ankles from the base of the tibia to the tarsal/metatarsal joints at a resolution of 18 μm."}, "[5]": {"tested_on": "activated B lymphocytes", "experiment": "lipopolysaccharide stimulation, mouse lymphocyte in vitro activation", "format": "cell-based"}}, "note": "“Also recorded” adds a separate entry of the source.", "data": [{"smiles": "CN(C)CC[C@H](CSc1ccccc1)Nc1ccc(S(=O)(=O)NC(=O)c2ccc(N3CCN(Cc4ccccc4-c4ccc(Cl)cc4)CC3)cc2)cc1[N+](=O)[O-]", "note": "[EXAMPLE A, N-(4-(4-((4′-chloro(1,1′-biphenyl)-2-yl)methyl)piperazin-1-yl)benzoyl)-4-(((1R)-3-(dimethylamino)-1-((phenylsulfanyl)methyl)propyl)amino)-3-nitrobenzenesulfonamide]", "values": [{"measurement": "paw swelling", "setting": "[1]; FIG. 1", "value": "inhibition of arthritis; also recorded: reduction in mouse paw swelling"}, {"measurement": "arthritis as assessed by MAS (mean arthritic score)", "setting": "[1]; FIG. 2", "value": "inhibition of arthritis"}, {"measurement": "responsiveness of T cells spared after treatment", "setting": "[2]; concavalin A stimulation", "value": "responsive to concavalin A"}, {"measurement": "proliferation of KLH antigen-specific T cells on restimulation ex vivo", "setting": "[2]; mice immunized with KLH and treated, versus vehicle control", "value": "significant inhibition of proliferation"}, {"measurement": "proliferation of activated T lymphocytes in a mixed-lymphocyte reaction (MLR)", "setting": "[3]", "value": "inhibited in a concentration-dependent manner"}, {"measurement": "mouse bone volume", "setting": "[4]", "value": "increase in mouse bone volume"}, {"measurement": "proliferation of activated B lymphocytes upon lipopolysaccharide stimulation", "setting": "[5]", "value": "inhibited in a concentration-dependent manner"}]}]}
